Measured values: US9796706B2, “Inhibitors of Jun N-terminal kinase” (IMAGO PHARMACEUTICALS, INC., priority 2009, dated 2017)

Assays:
Type in all cases: biochemical
Details in all cases: procedures of Example 14 (TR-FRET)
JNK2 = JNK2 (Homo sapiens (Human), UniProt P45984); assay: JNK2 TR-FRET kinase assay (Example 14)
Summary of the method: (§1)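 Two TR-FRET formats were used for each JNK isoform. In the direct one, preactivated aJNK phosphorylated EPIW-1 at about 1 mM final ATP (RT, 15 min). Both were EDTA-quenched and read by HTRF.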

JNK3 = JNK3 (Homo sapiens (Human), UniProt P53779); assay: JNK3 TR-FRET kinase assay (Example 14)
Summary of the method: as §1

JNK1 = JNK1 (Homo sapiens (Human), UniProt P45983); assay: JNK1 TR-FRET kinase assay (Example 14)
Summary of the method: as §1

JNK2, sequence (P45984 whole entry, species assumed, canonical isoform): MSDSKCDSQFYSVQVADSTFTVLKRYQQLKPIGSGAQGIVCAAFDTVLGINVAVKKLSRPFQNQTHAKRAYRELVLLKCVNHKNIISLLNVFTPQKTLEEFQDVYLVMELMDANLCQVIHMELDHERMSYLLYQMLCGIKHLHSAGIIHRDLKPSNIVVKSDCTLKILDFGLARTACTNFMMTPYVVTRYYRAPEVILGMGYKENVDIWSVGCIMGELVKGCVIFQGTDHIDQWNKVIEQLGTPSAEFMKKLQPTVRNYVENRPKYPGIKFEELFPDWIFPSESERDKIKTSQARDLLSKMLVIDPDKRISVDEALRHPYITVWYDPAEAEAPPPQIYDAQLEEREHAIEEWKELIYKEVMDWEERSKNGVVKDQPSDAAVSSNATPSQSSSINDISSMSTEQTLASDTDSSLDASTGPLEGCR
JNK3, sequence (P53779 whole entry, species assumed): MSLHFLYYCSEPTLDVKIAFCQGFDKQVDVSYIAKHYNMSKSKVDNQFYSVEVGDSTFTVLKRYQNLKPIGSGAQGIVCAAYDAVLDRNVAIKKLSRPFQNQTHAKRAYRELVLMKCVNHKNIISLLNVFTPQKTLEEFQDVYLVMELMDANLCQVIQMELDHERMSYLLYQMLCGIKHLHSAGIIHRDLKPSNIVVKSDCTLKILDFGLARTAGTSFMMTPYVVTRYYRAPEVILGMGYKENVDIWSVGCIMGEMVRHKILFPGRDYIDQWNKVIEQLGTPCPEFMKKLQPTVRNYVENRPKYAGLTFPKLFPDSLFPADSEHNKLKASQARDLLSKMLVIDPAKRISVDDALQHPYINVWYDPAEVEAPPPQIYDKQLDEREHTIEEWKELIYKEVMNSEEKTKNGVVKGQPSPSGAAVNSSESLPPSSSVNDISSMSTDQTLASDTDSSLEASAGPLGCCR
JNK1, sequence (P45983 other isoform, or with tags, fused parts or gaps isoform P45983-2, species assumed): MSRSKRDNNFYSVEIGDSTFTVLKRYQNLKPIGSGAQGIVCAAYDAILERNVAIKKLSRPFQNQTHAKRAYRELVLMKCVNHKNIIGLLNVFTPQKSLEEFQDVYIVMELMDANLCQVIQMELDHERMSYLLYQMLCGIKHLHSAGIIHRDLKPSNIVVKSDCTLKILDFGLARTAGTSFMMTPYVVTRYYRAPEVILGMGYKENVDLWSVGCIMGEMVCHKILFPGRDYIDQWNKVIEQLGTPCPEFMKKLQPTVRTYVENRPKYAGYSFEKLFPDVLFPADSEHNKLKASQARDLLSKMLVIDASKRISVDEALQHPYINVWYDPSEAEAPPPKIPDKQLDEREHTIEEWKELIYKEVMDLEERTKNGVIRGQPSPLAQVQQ

Structure (SMILES)	IC50 (JNK2)	IC50 (JNK3)	IC50 (JNK1)
Cc1cn2c(CC(=O)Nc3scc(Br)c3-c3ncn[nH]3)csc2n1 [N-(4-bromo-3-(1H-1,2,4-triazol-5-yl)thiophen-2-yl)-2-(6-methylimidazo[2,1-b]thiazol-3-yl)acetamide]	100 to 10000 nM	100 to 10000 nM	< 100 nM
O=C(CN1C(=O)CCc2ccc(Cl)cc21)Nc1scc(Br)c1-c1ncn[nH]1 [N-(4-bromo-3-(1H-1,2,4-triazol-5-yl)thiophen-2-yl)-2-(7-chloro-2-oxo-3,4-dihydroquinolin-1(2H)-yl)acetamide]	< 100 nM	< 100 nM	< 100 nM
N#Cc1ccc2ccc(=O)n(CC(=O)Nc3scc(Br)c3-c3ncn[nH]3)c2c1 [N-(4-bromo-3-(1H-1,2,4-triazol-5-yl)thiophen-2-yl)-2-(7-cyano-2-oxoquinolin-1(2H)-yl)acetamide]	< 100 nM	< 100 nM	< 100 nM
O=C(Cn1c(=O)ccc2cc(C(F)(F)F)c(F)cc21)Nc1scc(Br)c1-c1ncn[nH]1 [N-(4-bromo-3-(1H-1,2,4-triazol-5-yl)thiophen-2-yl)-2-(7-fluoro-2-oxo-6-(trifluoromethyl)quinolin-1(2H)-yl)acetamide]	< 100 nM	< 100 nM	< 100 nM
O=C(Cn1c(=O)ccc2ccc(F)cc21)Nc1scc(Br)c1-c1ncn[nH]1 [N-(4-bromo-3-(1H-1,2,4-triazol-5-yl)thiophen-2-yl)-2-(7-fluoro-2-oxoquinolin-1(2H)-yl)acetamide]	< 100 nM	< 100 nM	< 100 nM
O=C(Cc1cc(F)cc2ncccc12)Nc1scc(Br)c1-c1ncn[nH]1 [N-(4-bromo-3-(1H-1,2,4-triazol-5-yl)thiophen-2-yl)-2-(7-fluoroquinolin-5-yl)acetamide]	100 to 10000 nM	< 100 nM	< 100 nM
O=C(Cc1ccc(F)c2cnccc12)Nc1scc(Br)c1-c1ncn[nH]1 [N-(4-bromo-3-(1H-1,2,4-triazol-5-yl)thiophen-2-yl)-2-(8-fluoroisoquinolin-5-yl)acetamide]	< 100 nM	< 100 nM	< 100 nM
O=C(Cc1ccc(F)c2ncccc12)Nc1scc(Br)c1-c1ncn[nH]1 [N-(4-bromo-3-(1H-1,2,4-triazol-5-yl)thiophen-2-yl)-2-(8-fluoroquinolin-5-yl)acetamide]	100 to 10000 nM	< 100 nM	< 100 nM
O=C(Cc1cccc2nccn12)Nc1scc(Br)c1-c1ncn[nH]1 [N-(4-bromo-3-(1H-1,2,4-triazol-5-yl)thiophen-2-yl)-2-(imidazo[1,2-a]pyridin-5-yl)acetamide]	100 to 10000 nM	100 to 10000 nM	< 100 nM
O=C(Cc1cccc2cnccc12)Nc1scc(Br)c1-c1ncn[nH]1 [N-(4-bromo-3-(1H-1,2,4-triazol-5-yl)thiophen-2-yl)-2-(isoquinolin-5-yl)acetamide]	< 100 nM	< 100 nM	< 100 nM
O=C(Cc1cccc2ccncc12)Nc1scc(Br)c1-c1ncn[nH]1 [N-(4-bromo-3-(1H-1,2,4-triazol-5-yl)thiophen-2-yl)-2-(isoquinolin-8-yl)acetamide]	100 to 10000 nM	< 100 nM	< 100 nM
O=C(Cc1cccc2ncccc12)Nc1scc(Br)c1-c1ncn[nH]1 [N-(4-bromo-3-(1H-1,2,4-triazol-5-yl)thiophen-2-yl)-2-(quinolin-5-yl)acetamide]	< 100 nM	< 100 nM	< 100 nM
O=C(Cn1c(=O)ccc2cc(C(F)(F)F)ccc21)Nc1scc(Br)c1-n1nccn1 [N-(4-bromo-3-(2H-1,2,3-triazol-2-yl)thiophen-2-yl)-2-(2-oxo-6-(trifluoromethyl)quinolin-1(2H)-yl)acetamide]	100 to 10000 nM	< 100 nM	< 100 nM
O=C(CN1C(=O)C(F)(F)c2ccccc21)Nc1scc(Br)c1-c1nnc[nH]1 [N-(4-bromo-3-(4H-1,2,4-triazol-3-yl)thiophen-2-yl)-2-(3,3-difluoro-2-oxoindolin-1-yl)acetamide]	100 to 10000 nM	100 to 10000 nM	< 100 nM
